The numbers were not newly measured in patent publication US10112962B2, “Boron-based prodrug strategy for increased bioavailability and lower-dosage requirements for drug molecules containing at least one phenol (or aromatic hydroxyl) group” (XAVIER UNIVERSITY OF LOUISIANA, priority 2014, dated 2018), which cites them from elsewhere.

The conditions of series [1]: literature statement.
For series [2] the following is noted: literature statement. The source holds these as a separate data set.

SMILES strings stand for the structures.

With `C[C@]12CC[C@@H]3c4ccc(O)cc4C[C@@H](CCCCCCCCC[S+]([O-])CCCC(F)(F)C(F)(F)F)[C@H]3[C@@H]1CC[C@@H]2O` (stereo partly shown) [Fulvestrant], in series [1], the oral bioavailability entry was “poor oral bioavailability”.

Take `O=C(Nc1ccc([N+](=O)[O-])cc1Cl)c1cc(Cl)ccc1O` [niclosamide, Niclosamide]: the water solubility entry in series [2] was “poor water solubility”. Also, the oral bioavailability entry in series [1] is listed as “low oral bioavailability”.

For `O=C(c1ccc(OCCN2CCCCC2)cc1)c1c(-c2ccc(O)cc2)sc2cc(O)ccc12` [raloxifen, Raloxifene], the oral bioavailability result in series [1] is listed as “poor bioavailability”.
